Measurements from US20150105252A1, “SUBSTITUTED PYRAZOLES AS HERBICIDES” (E I DU PONT DE NEMOURS AND COMPANY, priority 2013, published 2015).

What was measured:
crabgrass, large [1] = assay: Test A preemergence; assay type: in vivo, Digitaria sanguinalis; conditions: 0 to 100 scale
How it was run: (§1)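 Greenhouse test in loam soil/sand blend; compounds formulated in non-phytotoxic solvent with surfactant, applied as preemergence directed soil spray or postemergence to plants 2–10 cm tall at one- to two-leaf stage. Injury rated visually versus untreated controls after approximately 10 days on a 0 (no effect) to 100 (complete control) scale.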

morningglory = assay: Test A preemergence; assay type: in vivo, Ipomoea spp.; conditions: 0 to 100 scale
How it was run: as §1

barnyardgrass [2] = assay: Test A postemergence; assay type: in vivo, Echinochloa crus-galli; conditions: Postemergence
How it was run: as §1

pigweed = assay: Test A postemergence; assay type: in vivo, Amaranthus retroflexus
How it was run: as §1

crabgrass, large [3] = assay: Test C preemergence; assay type: in vivo, Digitaria sanguinalis
How it was run: (§2)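 Greenhouse pot test: preemergence application onto freshly seeded loam/sand mix, postemergence application onto seedlings (1–4 leaves, 2–18 cm) in peat-vermiculite substrate. Responses scored visually 13 to 15 days later relative to controls, where 0 means no effect and 100 means complete control; a dash indicates no result.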

foxtail, giant = assay: Test C preemergence; assay type: in vivo, Setaria faberii
How it was run: as §2

johnsongrass = assay: Test C preemergence; assay type: in vivo, Sorghum halepense
How it was run: as §2

waterhemp = assay: Test C preemergence; assay type: in vivo, Amaranthus rudis
How it was run: as §2

velvetleaf = assay: Test C preemergence; assay type: in vivo, Abutilon theophrasti
How it was run: as §2

crabgrass, large [4] = assay: Test C postemergence; assay type: in vivo, Digitaria sanguinalis; conditions: for Plant response rating (scale of 0 to 100 where 0 is no effect and 100 is complete control), Crabgrass, Large: 31 g ai/ha, visually evaluated after 13 to 15 days; for Crabgrass, Large plant response rating / Plant response rating, Crabgrass, Large: postemergence; for Crabgrass, Large plant response rating: 62 g ai/ha, scale 0 to 100
How it was run: as §2

barnyardgrass [5] = assay: Test C postemergence; assay type: in vivo, Echinochloa crus-galli; conditions: for Plant response rating (scale of 0 to 100 where 0 is no effect and 100 is complete control), Barnyardgrass: 31 g ai/ha, visually evaluated after 13 to 15 days; for Barnyardgrass plant response rating / Plant response rating, Barnyardgrass: postemergence; for Barnyardgrass plant response rating: 62 g ai/ha, scale 0 to 100
How it was run: as §2

kochia = assay: Test C postemergence; assay type: in vivo, Kochia scoparia; conditions: for Plant response rating (scale of 0 to 100 where 0 is no effect and 100 is complete control), Kochia: 31 g ai/ha, visually evaluated after 13 to 15 days; for Kochia plant response rating / Plant response rating, Kochia: postemergence; for Kochia plant response rating: 62 g ai/ha, scale 0 to 100
How it was run: as §2

chickweed = assay: Test C postemergence; assay type: in vivo, Stellaria media; conditions: for Plant response rating (scale of 0 to 100 where 0 is no effect and 100 is complete control), Chickweed: 31 g ai/ha, visually evaluated after 13 to 15 days; for Chickweed plant response rating / Plant response rating, Chickweed: postemergence; for Chickweed plant response rating: 62 g ai/ha, scale 0 to 100
How it was run: as §2

[6] = Preemergence, 500 g ai/ha, 0 no effect, 100 complete control
[7] = preemergence, 125 g ai/ha, visual injury, approx. 10 days
[8] = 125 g ai/ha, 0 to 100 scale, 0 no effect, 100 complete control
[9] = 500 g ai/ha, visual rating after approx. 10 days, 0 to 100 scale (0 no effect, 100 complete control)
[10] = Postemergence, 500 g ai/ha, visual rating after approx. 10 days, 0 to 100 scale (0 no effect, 100 complete control)
[11] = postemergence, 125 g ai/ha, about 10 days, visual rating on 0 to 100 scale (0 no effect, 100 complete control)
[12] = Preemergence, 16 g ai/ha, scale 0 to 100
[13] = preemergence, 31 g ai/ha, scale 0 to 100 (0 no effect, 100 complete control), 13 to 15 days
[14] = preemergence, 62 g ai/ha, 13 to 15 days, scale 0 to 100, 0 = no effect, 100 = complete control
[15] = preemergence, 125 g ai/ha, scale 0 to 100, 0 is no effect, 100 is complete control
[16] = 125 g ai/ha, scale 0 to 100, 0 no effect, 100 complete control
[17] = 250 g ai/ha, scale 0 to 100 (0 no effect, 100 complete control)

CCONC(=O)c1cc(CC)n(Cc2ccnc(C(F)(F)F)c2)n1 [Compound 77]
70: Johnsongrass plant response rating (johnsongrass; [15]) | Plant response rating, Waterhemp (waterhemp; [12]) | Plant response rating, Kochia (kochia; [16])
35: Velvetleaf plant response rating (velvetleaf; [13])
0: Plant response rating (scale of 0 to 100), Barnyardgrass (barnyardgrass [5]; Postemergence, 16 g ai/ha) | Plant response rating (scale of 0 to 100 where 0 is no effect and 100 is complete control), Barnyardgrass (barnyardgrass [5]; Postemergence)
30: Plant response rating, Velvetleaf (velvetleaf; [12])
98: Waterhemp plant response rating (waterhemp; [13]) | Plant response rating, Waterhemp (waterhemp; [14])
5: Plant response rating (scale of 0 to 100), Crabgrass, Large (crabgrass, large [4]; Postemergence, 16 g ai/ha) | Barnyardgrass plant response rating (barnyardgrass [5])
10: Plant response rating, Johnsongrass (johnsongrass; [12]) | Plant response rating (scale of 0 to 100 where 0 is no effect and 100 is complete control), Crabgrass, Large (crabgrass, large [4]; Postemergence) | Crabgrass, Large plant response rating (crabgrass, large [4])
85: Crabgrass, Large plant response rating (crabgrass, large [3]; [13]) | Plant response rating, Foxtail, Giant (foxtail, giant; [14])
80: Foxtail, Giant plant response rating (foxtail, giant; [13])
45: Johnsongrass plant response rating (johnsongrass; [13]) | Kochia plant response rating (kochia)
20: Morningglory plant response rating (morningglory; [7]) | Plant response rating, Foxtail, Giant (foxtail, giant; [12]) | Plant response rating, Crabgrass, Large (crabgrass, large [4]; [16]) | Plant response rating, Barnyardgrass (barnyardgrass [5]; [16])
100: Crabgrass, Large plant response rating (crabgrass, large [1]; [6]) | Crabgrass, Large plant response rating (crabgrass, large [1]; [7]) | Barnyardgrass plant response rating (barnyardgrass [2]; [9]) | Pigweed plant response rating (pigweed; [10]) | Pigweed plant response rating (pigweed; [11]) | Plant response rating, Crabgrass, Large (crabgrass, large [3]; [14]) | Crabgrass, Large plant response rating (crabgrass, large [3]; [15]) | Foxtail, Giant plant response rating (foxtail, giant; [15]) | Waterhemp plant response rating (waterhemp; [15]) | Velvetleaf plant response rating (velvetleaf; [15])
60: Plant response rating, Crabgrass, Large (crabgrass, large [3]; [12]) | Plant response rating, Velvetleaf (velvetleaf; [14]) | Plant response rating, Chickweed (chickweed; [16])
55: Chickweed plant response rating (chickweed)
50: Morningglory plant response rating (morningglory; [6]) | Barnyardgrass plant response rating (barnyardgrass [2]; [8]) | Plant response rating (scale of 0 to 100), Chickweed (chickweed; Postemergence, 16 g ai/ha) | Plant response rating (scale of 0 to 100 where 0 is no effect and 100 is complete control), Chickweed (chickweed; Postemergence)
40: Plant response rating (scale of 0 to 100), Kochia (kochia; Postemergence, 16 g ai/ha) | Plant response rating (scale of 0 to 100 where 0 is no effect and 100 is complete control), Kochia (kochia; Postemergence)

CCc1cc(C(=O)NC2CC2)nn1Cc1ccnc(C(F)(F)F)c1 [Compound 76]
98: Waterhemp plant response rating (waterhemp; [13])
5: Plant response rating (scale of 0 to 100 where 0 is no effect and 100 is complete control), Crabgrass, Large (crabgrass, large [4]; Postemergence) | Plant response rating (scale of 0 to 100 where 0 is no effect and 100 is complete control), Barnyardgrass (barnyardgrass [5]; Postemergence) | Barnyardgrass plant response rating (barnyardgrass [5])
85: Plant response rating, Velvetleaf (velvetleaf; [14]) | Plant response rating, Chickweed (chickweed; [17])
100: Crabgrass, Large plant response rating (crabgrass, large [1]; [6]) | Morningglory plant response rating (morningglory; [6]) | Pigweed plant response rating (pigweed; [10]) | Pigweed plant response rating (pigweed; [11]) | Plant response rating (scale of 0 to 100), Crabgrass, Large (crabgrass, large [3]; Preemergence, 250 g ai/ha) | Crabgrass, Large plant response rating (crabgrass, large [3]; [13]) | Plant response rating, Crabgrass, Large (crabgrass, large [3]; [14]) | Crabgrass, Large plant response rating (crabgrass, large [3]; [15]) | Plant response rating (scale of 0 to 100), Foxtail, Giant (foxtail, giant; Preemergence, 250 g ai/ha) | Foxtail, Giant plant response rating (foxtail, giant; [13]) | Plant response rating, Foxtail, Giant (foxtail, giant; [14]) | Foxtail, Giant plant response rating (foxtail, giant; [15]) | Plant response rating (scale of 0 to 100), Johnsongrass (johnsongrass; Preemergence, 250 g ai/ha) | Plant response rating, Johnsongrass (johnsongrass; [14]) | Johnsongrass plant response rating (johnsongrass; [15]) | Plant response rating (scale of 0 to 100), Waterhemp (waterhemp; Preemergence, 250 g ai/ha) | Plant response rating, Waterhemp (waterhemp; [14]) | Waterhemp plant response rating (waterhemp; [15]) | Plant response rating (scale of 0 to 100), Velvetleaf (velvetleaf; Preemergence, 250 g ai/ha) | Velvetleaf plant response rating (velvetleaf; [15])
60: Plant response rating, Barnyardgrass (barnyardgrass [5]; [17])
10: Crabgrass, Large plant response rating (crabgrass, large [4])
80: Barnyardgrass plant response rating (barnyardgrass [2]; [8]) | Johnsongrass plant response rating (johnsongrass; [13]) | Chickweed plant response rating (chickweed) | Plant response rating, Chickweed (chickweed; [16])
90: Crabgrass, Large plant response rating (crabgrass, large [1]; [7]) | Barnyardgrass plant response rating (barnyardgrass [2]; [9]) | Kochia plant response rating (kochia) | Plant response rating, Kochia (kochia; [17]) | Plant response rating, Kochia (kochia; [16])
50: Plant response rating (scale of 0 to 100 where 0 is no effect and 100 is complete control), Chickweed (chickweed; Postemergence)
70: Morningglory plant response rating (morningglory; [7]) | Plant response rating, Crabgrass, Large (crabgrass, large [4]; [17]) | Plant response rating, Crabgrass, Large (crabgrass, large [4]; [16])
75: Velvetleaf plant response rating (velvetleaf; [13]) | Plant response rating (scale of 0 to 100 where 0 is no effect and 100 is complete control), Kochia (kochia; Postemergence)
15: Plant response rating, Barnyardgrass (barnyardgrass [5]; [16])
